Experimental data published in article PMC10366102, “Dose escalation and expansion cohorts in patients with advanced breast cancer in a Phase I study of the CDK7-inhibitor samuraciclib” (Nature Communications, 2023).

System: patients with locally advanced and/or metastatic TNBC
Conditions: both, human, in vivo
Protocol: A single arm expansion was conducted to refine the safety, tolerability, PK, and pharmacodynamic profiles of samuraciclib monotherapy (360 mg OD) in male or female patients with advanced TNBC. Patients with histological, radiological or cytological confirmation of metastasis or locally advanced TNBC not considered to be appropriate for further standard treatment, who had received at least 1 line of systemic anti-cancer therapy, and measurable disease according to the RECIST V1.1, were eligible.
Patients underwent regular safety monitoring and 8-week scans reported using RECIST V1.1.
Module 1B-1 was a cohort expansion to explore the safety, tolerability, PK and pharmacodynamic effects, and anti-tumor activity of samuraciclib when given as monotherapy to patients with advanced TNBC; participants were treated at a starting dose of 360 mg once daily (OD). The initial sample size was to be a maximum of 50 participants, of whom approximately 30 participants were to receive the CT7001 dosing regimen which was declared as the RP2D.
Module 1B-1 included an interim efficacy analysis when 15 patients in the RP2D Population were evaluable for efficacy assessments. The Module 1B-1 TNBC expansion phase was designed using a 2-stage design. The null hypothesis for the ORR was 10% and this was tested against an alternative […]
patients were to be recruited, and the […]. Otherwise, recruitment was to continue until up to a total of 30 evaluable patients were recruited and if ≥6/30 (20%) responses were observed, across both stages of the study, the null hypothesis was to be rejected. At the timepoint for the interim efficacy assessment, the requirement of 2 or more participants achieving a Response Evaluation Criteria in Solid Tumors (RECIST) PR had not been met, with only 1 participant in the first 15 evaluable participants achieving a PR. However, 8 out of 15 evaluable participants achieved SD, with 4 participants being treated for at least 16 weeks, which in this aggressive tumor type is of significant clinical note. Following discussion with the SRC it was agreed that further evaluable participants would be recruited into this expansion study.
The schedule of assessments for this study is provided in Supplementary Table 3. […]
Duration of response (DoR) was defined as the time from documentation of tumor response to disease progression. Progression-free survival (PFS) was […]
cause, whichever occurred first. Efficacy results were summarized descriptively and Kaplan -Meier plots provided where appropriate. […]
received at least 1 dose of samuraciclib). These were summarized by Medical Dictionary for Regulatory […]
adverse events (SAEs) were analyzed and reported separately. Details of any deaths were listed. All […]
were listed individually by patient and summarized descriptively. For urinalysis parameters, any […]
positive. Abnormal physical examina tion findings were listed.

CC(C)c1cnn2c(NCc3ccccc3)cc(NC[C@H]3CCNC[C@@H]3O)nc12 [samuraciclib, Samuraciclib]
ALT increased; All AEs: 0 patients (%)
ALT increased; Grade ≥3: 0 patients (%)
AST increased; All AEs: 0 patients (%)
AST increased; Grade ≥3: 0 patients (%)
Abdominal pain upper; All AEs: 0 patients (%)
Abdominal pain upper; Grade ≥3: 0 patients (%)
Abdominal pain; All AEs: 6 (26.1) patients (%)
Abdominal pain; Grade ≥3: 0 patients (%)
Anemia; All AEs: 0 patients (%)
Anemia; Grade ≥3: 1 (4.3) patients (%)
Any treatment-emergent AE; All AEs: 23 (100.0) patients (%)
Any treatment-emergent AE; Grade ≥3: 10 (43.5) patients (%)
Back pain; All AEs: 0 patients (%)
Back pain; Grade ≥3: 0 patients (%)
Constipation; All AEs: 7 (30.4) patients (%)
Constipation; Grade ≥3: 0 patients (%)
Cough; All AEs: 3 (13.0) patients (%)
Cough; Grade ≥3: 0 patients (%)
Decreased appetite; All AEs: 3 (13.0) patients (%)
Decreased appetite; Grade ≥3: 0 patients (%)
Diarrhea; All AEs: 21 (91.3) patients (%)
Diarrhea; Grade ≥3: 3 (13.0) patients (%)
Discontinued samuraciclib due to related AEs: 4.3%
Dizziness; All AEs: 0 patients (%)
Dizziness; Grade ≥3: 0 patients (%)
Dysgeusia; All AEs: 0 patients (%)
Dysgeusia; Grade ≥3: 0 patients (%)
Dysphagia; All AEs: 0 patients (%)
Dysphagia; Grade ≥3: 0 patients (%)
Dyspnea; All AEs: 0 patients (%)
Dyspnea; Grade ≥3: 0 patients (%)
Fatigue; All AEs: 11 (47.8) patients (%)
Fatigue; Grade ≥3: 1 (4.3) patients (%)
Headache; All AEs: 0 patients (%)
Headache; Grade ≥3: 0 patients (%)
Hyperglycemia; All AEs: 0 patients (%)
Hyperglycemia; Grade ≥3: 0 patients (%)
Hypocalcaemia; All AEs: 0 patients (%)
Hypocalcaemia; Grade ≥3: 0 patients (%)
Hypokalaemia; All AEs: 0 patients (%)
Hypokalaemia; Grade ≥3: 0 patients (%)
Nausea; All AEs: 22 (95.7) patients (%)
Nausea; Grade ≥3: 1 (4.3) patients (%)
Rash; All AEs: 0 patients (%)
Rash; Grade ≥3: 0 patients (%)
Stomatitis; All AEs: 3 (13.0) patients (%)
Stomatitis; Grade ≥3: 1 (4.3) patients (%)
Taste disorder; All AEs: 0 patients (%)
Taste disorder; Grade ≥3: 0 patients (%)
Upper respiratory tract infection; All AEs: 3 (13.0) patients (%)
Upper respiratory tract infection; Grade ≥3: 0 patients (%)
Urinary tract infection; All AEs: 0 patients (%)
Urinary tract infection; Grade ≥3: 0 patients (%)
Vomiting; All AEs: 14 (60.9) patients (%)
Vomiting; Grade ≥3: 2 (8.7) patients (%)
Weight decreased; All AEs: 0 patients (%)
Weight decreased; Grade ≥3: 0 patients (%)
